Results from ChEMBL document CHEMBL1201862, “PubChem BioAssay data set” (2004).
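Compound exposure: 48 hours, 5 concentrations, 96-well plates. Here, GI50 denotes the concentration required for 50% inhibition of growth.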 Calls of active or inactive are those of the source. Rule as the data show it: active = GI50 up to about 1.1 µM and inactive = higher.

Experiments:
Test in all cases: NCI tumour cell line growth inhibition, 48 h
[1] = test system: 786-0
[2] = test system: A498
[3] = test system: A549
[4] = test system: ACHN
[5] = test system: CAKI-1
[6] = test system: CCRF-CEM
[7] = test system: COLO 205
[8] = test system: DU-145
[9] = test system: EKVX
[10] = test system: HCC 2998
[11] = test system: HCT-15
[12] = test system: HL-60
[13] = test system: HOP-62
[14] = test system: HOP-92
[15] = test system: HT-29
[16] = test system: Hs-578T
[17] = test system: IGROV-1
[18] = test system: K562
[19] = test system: KM12
[20] = test system: LOX IMVI
[21] = test system: M14
[22] = test system: MCF7
[23] = test system: MDA-MB-231
[24] = test system: MDA-MB-435
[25] = test system: MDA-N
[26] = test system: MOLT-4
[27] = test system: Malme-3M
[28] = test system: NCI-H23
[29] = test system: NCI-H460
[30] = test system: NCI-H522
[31] = test system: NCI/ADR-RES
[32] = test system: OVCAR-3
[33] = test system: OVCAR-4
[34] = test system: OVCAR-5
[35] = test system: OVCAR-8
[36] = test system: PC-3
[37] = test system: RPMI-8226
[38] = test system: RXF 393
[39] = test system: SF-268
[40] = test system: SF-295
[41] = test system: SF-539
[42] = test system: SK-MEL-28
[43] = test system: SK-MEL-2
[44] = test system: SK-MEL-5
[45] = test system: SK-OV-3
[46] = test system: SN12C
[47] = test system: SNB-19
[48] = test system: SNB-75
[49] = test system: SR
[50] = test system: SW-620
[51] = test system: T47D
[52] = test system: TK-10
[53] = test system: U-251
[54] = test system: UACC-257
[55] = test system: UACC-62
[56] = test system: UO-31
[57] = test system: BT-549
[58] = test system: HCT-116
[59] = test system: NCI-H226

## CCO[C@]12CCC[C@H]1[C@@H]1C(=O)c3ccccc3C(=O)C1=C(C)O2
[1]
  GI50: 29.2 µM (inactive)
[2]
  GI50: 76 µM (inactive)
[3]
  GI50: > 100 µM (inactive)
[4]
  GI50: 36.8 µM (inactive)
[5]
  GI50: 55.8 µM (inactive)
[6]
  GI50: 33.5 µM (inactive)
[7]
  GI50: > 100 µM (inactive)
[8]
  GI50: 58.1 µM (inactive)
[9]
  GI50: > 100 µM (inactive)
[10]
  GI50: > 100 µM (inactive)
[11]
  GI50: > 100 µM
[12]
  GI50: 41.7 µM (inactive)
[13]
  GI50: > 100 µM (inactive)
[14]
  GI50: 44.9 µM (inactive)
[15]
  GI50: > 100 µM (inactive)
[16]
  GI50: > 100 µM (inactive)
[17]
  GI50: > 100 µM (inactive)
[18]
  GI50: 32 µM (inactive)
[19]
  GI50: > 100 µM (inactive)
[20]
  GI50: 20.8 µM (inactive)
[21]
  GI50: 34.3 µM (inactive)
[22]
  GI50: 17 µM (inactive)
[23]
  GI50: > 100 µM (inactive)
[24]
  GI50: 39.5 µM (inactive)
[25]
  GI50: 19.5 µM (inactive)
[26]
  GI50: 33.6 µM (inactive)
[27]
  GI50: > 100 µM (inactive)
[28]
  GI50: 98.2 µM (inactive)
[29]
  GI50: > 100 µM (inactive)
[30]
  GI50: > 100 µM (inactive)
[31]
  GI50: > 100 µM (inactive)
[32]
  GI50: 22 µM (inactive)
[33]
  GI50: 26.3 µM (inactive)
[34]
  GI50: > 100 µM (inactive)
[35]
  GI50: 40.1 µM (inactive)
[36]
  GI50: > 100 µM (inactive)
[37]
  GI50: 29.2 µM (inactive)
[38]
  GI50: 20.5 µM (inactive)
[39]
  GI50: 30.8 µM (inactive)
[40]
  GI50: 81.1 µM (inactive)
[41]
  GI50: 29.4 µM (inactive)
[42]
  GI50: > 100 µM (inactive)
[43]
  GI50: > 100 µM (inactive)
[44]
  GI50: 33.7 µM (inactive)
[45]
  GI50: > 100 µM (inactive)
[46]
  GI50: > 100 µM (inactive)
[47]
  GI50: > 100 µM (inactive)
[48]
  GI50: 58.6 µM (inactive)
[49]
  GI50: 22.3 µM (inactive)
[50]
  GI50: 37.2 µM (inactive)
[51]
  GI50: 70 µM (inactive)
[52]
  GI50: > 100 µM (inactive)
[53]
  GI50: 36.3 µM (inactive)
[54]
  GI50: > 100 µM (inactive)
[55]
  GI50: > 100 µM (inactive)
[56]
  GI50: > 100 µM (inactive)

## COc1ccc(-c2csc3c2-n2cccc2C3=O)cc1
[1]
  GI50: 0.303 µM (active)
[2]
  GI50: 0.698 µM (active)
[3]
  GI50: 0.159 µM (active)
[4]
  GI50: 0.805 µM (active)
[57]
  GI50: 8.93 µM (inactive)
[5]
  GI50: 0.268 µM (active)
[6]
  GI50: 0.0242 µM (active)
[7]
  GI50: 0.215 µM (active)
[8]
  GI50: 0.175 µM (active)
[9]
  GI50: 0.767 µM (active)
[10]
  GI50: 0.344 µM (active)
[58]
  GI50: 0.0461 µM (active)
[11]
  GI50: 0.0653 µM
[12]
  GI50: < 0.0176 µM (active)
[13]
  GI50: 0.0656 µM (active)
[14]
  GI50: 3.12 µM (inactive)
[15]
  GI50: 0.028 µM (active)
[17]
  GI50: 0.258 µM (active)
[18]
  GI50: < 0.0285 µM (active)
[19]
  GI50: 0.0401 µM (active)
[20]
  GI50: 0.0458 µM (active)
[21]
  GI50: 0.0346 µM (active)
[22]
  GI50: 0.18 µM (active)
[23]
  GI50: < 0.0375 µM (active)
[24]
  GI50: 0.0132 µM (active)
[25]
  GI50: 0.0135 µM (active)
[26]
  GI50: 0.0444 µM (active)
[27]
  GI50: 28.8 µM (inactive)
[59]
  GI50: 4.46 µM (inactive)
[28]
  GI50: 0.438 µM (active)
[29]
  GI50: 0.11 µM (active)
[31]
  GI50: < 0.0204 µM (active)
[32]
  GI50: 0.0416 µM (active)
[33]
  GI50: 2.07 µM (inactive)
[34]
  GI50: 34 µM (inactive)
[35]
  GI50: 0.0867 µM (active)
[36]
  GI50: < 0.0367 µM (active)
[37]
  GI50: 0.0425 µM (active)
[38]
  GI50: 0.07 µM (active)
[39]
  GI50: 1.75 µM (inactive)
[40]
  GI50: 0.0395 µM (active)
[41]
  GI50: 0.0304 µM (active)
[42]
  GI50: 0.406 µM (active)
[43]
  GI50: 0.366 µM (active)
[44]
  GI50: 0.0581 µM (active)
[45]
  GI50: 0.216 µM (active)
[46]
  GI50: 0.0885 µM (active)
[47]
  GI50: 0.0745 µM (active)
[48]
  GI50: 0.0964 µM (active)
[49]
  GI50: 0.0206 µM (active)
[50]
  GI50: < 0.0232 µM (active)
[53]
  GI50: 0.0326 µM (active)
[55]
  GI50: 0.0269 µM (active)
[56]
  GI50: 0.11 µM (active)
